One data set concerns CYP3A24. In words: Incubation of recombinant CYP3A24 with FF and DOX (FFA production). Type of data set: in vitro ADME, goat. The settings on record: FF incubated with CYP3A24.
A further data set concerns CYP3A24 gene. In words: Gene expression of CYP3A24 in goat liver (qPCR). Type of data set: in vivo, goats. How it is done:
Throughout the experiment, all goats had ad libitum access to feed and water without antibiotics. The goats were divided into three groups, namely the control group (6 animals), the single group (24 animals), and the combined group (24 animals). The control group was fed without medication. In the single group, FF (Zhonglongshenli Animal Pharmaceutical Co., Ltd. Hefei, China, specification: 10 mL: 1 g) was injected into the neck muscles at 48 h intervals, twice in total. In the combined group, FF was injected into the neck muscles at 48 h intervals, twice in total, and DOX-hyclate (Zhonglongshenli Animal Pharmaceutical Co., Ltd. Hefei, China, specification: 10 mL: 1 g) was injected into the neck muscles, once a day for 3 days. The volume of the treatment solution was calculated individually for each goat to provide a dose equivalent to 20 mg FF/kg bw and 10 mg DOX/kg bw. […]
Real-time quantitative polymerase chain reaction (qPCR) was used to detect the expression of CYP3A24 in treated goats. […] The concentration and purity of RNA was detected by Q3000 (Thermo, USA). […] The data were analyzed by the 2^ΔΔCt method.

The nature of data set [1]: Tissue residue depletion in goats (LC-MS/MS). The settings on record: both sexes, Boaer-cross, intramuscular, i.m., mean ± SD, 4 goats; for concentration at 0.5 days: 0.5 days after last dose; for concentration at 1 day: 1 day after last dose. The class given is in vivo, goats (Capra hircus). The procedure: In this study, a total of 54 Boaer-cross goats (Capra hircus) of both sexes, about 8 months old, were selected, weighing 28–36 kg. During the 1st week of acclimatization, all animals were raised in the usual way, with free access to feed and water. The experiment was conducted in accordance with the Guidelines for the Care and Use of Laboratory Animals issued by HZAU and approved by the Ethics Committee of Veterinary College of HZAU.
Throughout the experiment, all goats had ad libitum access to feed and water without antibiotics. The goats were divided into three groups, namely the control group (6 animals), the single group (24 animals), and the combined group (24 animals). The control group was fed without medication. In the single group, FF (Zhonglongshenli Animal Pharmaceutical Co., Ltd. Hefei, China, specification: 10 mL: 1 g) was injected into the neck muscles at 48 h intervals, twice in total. In the combined group, FF was injected into the neck muscles at 48 h intervals, twice in total, and DOX-hyclate (Zhonglongshenli Animal Pharmaceutical Co., Ltd. Hefei, China, specification: 10 mL: 1 g) was injected into the neck muscles, once a day for 3 days. The volume of the treatment solution was calculated individually for each goat to provide a dose equivalent to 20 mg FF/kg bw and 10 mg DOX/kg bw.
Goats of the single group (treated with FF) and goats of the combined group (treated with FF and DOX) were euthanized as previously described at 0.5 (n = 4), 1 (n = 4), 3 (n = 4), 7 (n = 4), 14 (n = 4), and 21 days (n = 4) after the last dose of 20 mg FF/kg bw (single group) and after the last dose of 20 mg FF/kg bw plus 10 mg DOX/kg bw (combined group). Goats were immediately exsanguinated, and tissue specimens of liver, kidney and muscle were collected separately. Each of the tissue specimens was carefully weighed and stored frozen at −20°C until assayed for concentrations of FF and FFA.
The method of FF and FFA pre-processing in the target tissues was as follows: Tissue samples weighing 1.00 ± 0.01 g were placed in a 10 mL centrifuge tube, then 5 mL 2% ammoniated ethyl acetate was added, and the tube was vortexed, sonicated and centrifuged. The above steps were repeated, and the supernatants were pooled and dried under a stream of nitrogen. The residue was reconstituted in 5% acetic acid in water, vortexed and passed through an MCX solid-phase extraction column (the order of the column was methanol, water, sample, 5% acetic acid water and 8% ammoniated ethyl acetate), then the eluate was dried under nitrogen, re-dissolved in 2 mL of degreased n-hexane, passed through a 0.22 μm filter membrane and subjected to LC-MS/MS (AB SCIEX API5000, USA) analysis.
All inter-assay coefficients of variation in each tissue were within 9.93%, the intra-assay coefficients of variation in each tissue were within 11.08%, and the recovery rates in each tissue were between 70.62 and 113.55%. […] For FF and FFA, the LOQ of the analysis was 10 μg/kg, and the LOD of the analysis was 2 μg/kg. The peak times of FFA and FF were 1.80 and 6.05, respectively (Figure 1).

A further data set concerns CYP3A24 R372A. Particulars: mutant R372A.
In a further data set the test system is CYP3A24 R440A. The settings on record: mutant R440A.
For data set [2], the system named is CYP3A24 and its mutants (R105A, R372A, R440A). In words: Protein activity verification of CYP3A24 and its mutants with testosterone. The settings on record: TS 1 μmol/L, 60 min. The procedure: Testosterone (TS) is a specific substrate of CYP3A, which can generate 6β-OHTS under the action of CYP3A ([21]). In order to study the protein activity of CYP3A24 and its mutants, we incubated each protein with TS. The experimental steps were as follows: protein (0.5 mg/mL) and NADPH (1 mmol/L) were added to PBS (pH 7.4) for 10 min at 37°C, then TS (Dr. Ehrenstorfer GmbH, Germany, 1 μmol/L) was added to start the reaction. The total reaction volume was 200 μL. At 60 min after drug addition, 200 μL of ice-cold acetonitrile was added to terminate the reaction. After centrifugation at 12,000 g/min for 15 min, the supernatant was filtered through a 0.22 μm membrane and analyzed by LC-MS/MS (AB SCIEX API5000, USA). For TS and 6β-OHTS, chromatographic separation occurred using a Thermo Scientific Hypersil Gold C18 column (150 × 2.1 mm, 5 μm particles), and analytes were detected on an API5000 mass analyser. Mobile phase A was 0.1% formic acid in water, and mobile phase B was methanol. The flow rate was 0.2 mL/min with a linear gradient under the following conditions: 0–0.10 min 5–85% B, 0.10–4.10 min 85% B, 4.10–8.00 min 85–5% B. The injection volume was set to 10 μL.

[3] abbreviates: goat, 20 mg/kg bw, kidney, read-out: Tissue concentration FF.
Where [4] appears, read: goat, 20 mg/kg bw, liver, read-out: Tissue concentration FF.
[5] abbreviates: goat, 20 mg/kg bw, muscle, read-out: Tissue concentration FF.

Like-named read-outs stand apart in the source and are kept apart here.

The source of these data is article PMC8558239, “Interaction Between Florfenicol and Doxycycline Involving Cytochrome P450 3A in Goats (Capra hricus)” (Frontiers in Veterinary Science, 2021).

Take `C[C@H]1c2cccc(O)c2C(=O)C2=C(O)[C@]3(O)C(=O)C(C(N)=O)=C(O)[C@@H](N(C)C)[C@@H]3[C@@H](O)[C@@H]21` [DOX, α-6-deoxy-5-hydroxytetracycline]: in the data set with CYP3A24, the “reduction of FFA production on addition of DOX” value is recorded as 17.8%.
Take `CS(=O)(=O)c1ccc([C@@H](O)[C@@H](CF)NC(=O)C(Cl)Cl)cc1` [FF]: the entries for the “up-regulation of CYP3A24 gene expression compared to control” value with CYP3A24 gene (1 day after treatment stopped) and in the data set on CYP3A24 gene (3 days after treatment stopped) were “about 2.3 fold” and about 3 fold, respectively. Besides, the concentration at 3 days after last dose in data set [1] (goat (Capra hircus), 20 mg FF/kg bw, liver, 3 days after last dose) was found to be 936 ± 148 ng/g. The same molecule had a concentration at 7 days after last dose in data set [1] (goat (Capra hircus), 20 mg FF/kg bw, liver, 7 days after last dose) of 338 ± 126 ng/g. In data set [1] (goat (Capra hircus), 20 mg FF/kg bw, liver, 14 days after last dose), this molecule came in with a concentration at 14 days after last dose of 179 ± 26.5 ng/g. This molecule also came in with a concentration at 21 days after last dose in data set [1] (goat (Capra hircus), 20 mg FF/kg bw, liver, 21 days after last dose) of 44.5 ± 17.6 ng/g. The values for the concentration at 0.5 days in data set [1] (setting [3]), in data set [1] (setting [4]) and in data set [1] (setting [5]) were 2260 ± 203 ng/g, 2790 ± 257 ng/g and 1760 ± 201 ng/g, respectively. Also, the figures for the concentration at 1 day in data set [1] (setting [3]), in data set [1] (setting [4]) and in data set [1] (setting [5]) were 1770 ± 142 ng/g, 2050 ± 310 ng/g and 858 ± 43.2 ng/g, respectively. The concentration at 3 days was determined as 843 ± 124 ng/g in data set [1] (goat, 20 mg/kg bw, kidney, 3 days after last dose, read-out: Tissue concentration FF) and 376 ± 58.1 ng/g in data set [1] (goat, 20 mg/kg bw, muscle, 3 days after last dose, read-out: Tissue concentration FF). Moreover, the concentration at 7 days in data set [1] (goat, 20 mg/kg bw, kidney, 7 days after last dose, read-out: Tissue concentration FF) stood at 327 ± 43.4 ng/g; in data set [1] (goat, 20 mg/kg bw, muscle, 7 days after last dose, read-out: Tissue concentration FF), 162 ± 4.6 ng/g. The concentration at 14 days came out at 131 ± 17.1 ng/g in data set [1] (goat, 20 mg/kg bw, kidney, 14 days after last dose, read-out: Tissue concentration FF) and 48.6 ± 7.6 ng/g in data set [1] (goat, 20 mg/kg bw, muscle, 14 days after last dose, read-out: Tissue concentration FF). In data set [1] (goat, 20 mg/kg bw, kidney, 21 days after last dose, read-out: Tissue concentration FF), the concentration at 21 days amounted to 37.5 ± 8.6 ng/g. The “reduction of FF metabolism (FFA production) vs CYP3A24” value in the data set on CYP3A24 R372A was determined as 32.9%; in the data set with CYP3A24 R440A it was 65.8%.
`C[C@]12CC[C@H]3[C@@H](CCC4=CC(=O)CC[C@@]43C)[C@@H]1CC[C@@H]2O` [TS, Testosterone]: in data set [2], the “metabolism of TS into 6β-OHTS” value was “could metabolize TS”.
